Test results: ChEMBL document CHEMBL1201862, “PubChem BioAssay data set” (2004)
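Exposure lasted 48 hours, with cells grown in 96-well plates and compounds tested at five concentrations. Abbreviation: GI50, concentration required for 50% inhibition of growth.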 Calls of active or inactive are those of the source. Cut-off read from the data, not from the text of the source: active = GI50 up to about 1.1 µM and inactive = higher.

Key:
Assay in all cases: DTP human tumour cell line panel, 48 h
[1] = system: A498
[2] = system: CAKI-1
[3] = system: EKVX
[4] = system: HOP-92
[5] = system: HT-29
[6] = system: KM12
[7] = system: M19-MEL
[8] = system: NCI-H226
[9] = system: NCI-H522
[10] = system: OVCAR-3
[11] = system: OVCAR-4
[12] = system: SF-268
[13] = system: SF-539
[14] = system: SK-MEL-5
[15] = system: SNB-75
[16] = system: SR
[17] = system: TK-10
[18] = system: HCT-15
[19] = system: MCF7
[20] = system: NCI/ADR-RES

| Compound | GI50 [1] | GI50 [2] | GI50 [3] | GI50 [4] | GI50 [5] | GI50 [6] | GI50 [7] | GI50 [8] | GI50 [9] | GI50 [10] | GI50 [11] | GI50 [12] | GI50 [13] | GI50 [14] | GI50 [15] | GI50 [16] | GI50 [17] | GI50 [18] [nM] | GI50 [19] | GI50 [20] |
| --- | --- | --- | --- | --- | --- | --- | --- | --- | --- | --- | --- | --- | --- | --- | --- | --- | --- | --- | --- | --- |
| C=CCCN1CCc2c([nH]c3ccccc23)C1C(=O)O (centres undefined) | > 100 µM (inactive) | > 100 µM (inactive) | > 100 µM (inactive) | > 100 µM (inactive) | > 100 µM (inactive) | > 100 µM (inactive) | > 100 µM (inactive) | 89.7 µM (inactive) | > 100 µM (inactive) | > 100 µM (inactive) | > 100 µM (inactive) | 78.3 µM (inactive) | > 100 µM (inactive) | > 100 µM (inactive) | 26.9 µM (inactive) | > 100 µM (inactive) | > 100 µM (inactive) |  |  |  |
| ClCc1ccc2ccc3ccc(CCl)nc3c2n1 | 10.6 µM (inactive) |  | 15.6 µM (inactive) | 2.09 µM (inactive) | 2.17 µM (inactive) | 0.9 µM (active) | 1.76 µM (inactive) | 2.28 µM (inactive) | 1.76 µM (inactive) | 1.94 µM (inactive) | 5.65 µM (inactive) | 4.19 µM (inactive) | 2.25 µM (inactive) | 1.4 µM (inactive) | 1.95 µM (inactive) |  |  | 1780 | 0.955 µM (active) | 1.71 µM (inactive) |
| C=C1C(=O)OC2CC1CCC1(C)OC1CCC(C)=CCCC2(C)O (centres undefined) | 2.13 µM (inactive) | 2.4 µM (inactive) | 6.87 µM (inactive) | 2.26 µM (inactive) | 4.06 µM (inactive) | 5.52 µM (inactive) | 4.2 µM (inactive) | 3.61 µM (inactive) | 1.06 µM (active) | 3.33 µM (inactive) | 4.78 µM (inactive) | 5.36 µM (inactive) | 4.62 µM (inactive) | 4 µM (inactive) | 7.08 µM (inactive) |  |  | 1850 | 3.82 µM (inactive) | 1.8 µM (inactive) |
| CC1=C2C3OC(=O)C(C)C3CCC2(C)C=C/C1=N\c1ccccc1 (centres undefined) | > 100 µM (inactive) |  | > 100 µM (inactive) | > 100 µM (inactive) | > 100 µM (inactive) | > 100 µM (inactive) | > 100 µM (inactive) | > 100 µM (inactive) | > 100 µM (inactive) | > 100 µM (inactive) | > 100 µM (inactive) | > 100 µM (inactive) | > 100 µM (inactive) | > 100 µM (inactive) | > 53.3 µM (inactive) |  |  | > 100000 | > 100 µM (inactive) | > 100 µM (inactive) |
| Cc1cc(C(=O)NCCN(C)C)c2nc3ccccc3cc2c1 | 1.15 µM (inactive) | 0.33 µM (active) | 0.594 µM (active) | 1.45 µM (inactive) | 1.13 µM (inactive) | 2.94 µM (inactive) | 1.85 µM (inactive) | 1.17 µM (inactive) |  | 2.38 µM (inactive) | 3.02 µM (inactive) | 2.77 µM (inactive) | 3.76 µM (inactive) | 1.64 µM (inactive) | 3.13 µM (inactive) |  |  | 1650 | 1.55 µM (inactive) | 1.1 µM (active) |
| O=C1C=CC(=O)c2c(Cl)ccc(O)c21 | > 87.9 µM (inactive) | 11.1 µM (inactive) | 21.8 µM (inactive) | 2.75 µM (inactive) | 21.6 µM (inactive) | 52.7 µM (inactive) | 16.3 µM (inactive) | > 91.2 µM (inactive) | 13.9 µM (inactive) | 15.6 µM (inactive) | 18.5 µM (inactive) | 18.4 µM (inactive) | > 42.3 µM (inactive) | 17.7 µM (inactive) | 28.5 µM (inactive) |  |  | 17800 | 13.9 µM (inactive) | 18.7 µM (inactive) |
